# Values quoted from earlier work, collected in patent publication US20080213414A1, “Compositions containing phaseolus vulgaris extract and alpinia officinarum extract for the prevention and treatment of obesity and type II diabetes” (priority 2005, published 2008).
# Columns and labels:
# pancreatic lipase = target: T1, pancreatic lipase (Homo sapiens, UniProt P16233)
# T1 sequence (P16233 17-465): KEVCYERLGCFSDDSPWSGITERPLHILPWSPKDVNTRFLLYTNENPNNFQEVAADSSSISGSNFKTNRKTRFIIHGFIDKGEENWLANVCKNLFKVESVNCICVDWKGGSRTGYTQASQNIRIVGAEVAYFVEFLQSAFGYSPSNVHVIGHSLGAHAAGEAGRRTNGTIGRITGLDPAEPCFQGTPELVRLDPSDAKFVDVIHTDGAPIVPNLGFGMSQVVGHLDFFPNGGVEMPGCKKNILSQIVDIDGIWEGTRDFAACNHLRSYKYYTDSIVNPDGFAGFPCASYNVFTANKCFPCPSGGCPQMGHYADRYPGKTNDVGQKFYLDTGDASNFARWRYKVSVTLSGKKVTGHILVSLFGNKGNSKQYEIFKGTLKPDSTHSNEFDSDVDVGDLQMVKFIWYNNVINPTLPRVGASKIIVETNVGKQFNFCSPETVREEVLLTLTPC
# [1] = without gastroprotection
structure (smiles),measurement,setting,value
COc1c(-c2ccccc2)oc2cc(O)cc(O)c2c1=O [3-methylethergalangin],"IC50, inhibition of pancreatic lipase",pancreatic lipase,around 1 mg/ml
same,stability to the gastric juices,[1],not broken down by the gastric juices
